In ChEMBL document CHEMBL6087476, “Positive Charge-Concentrated Dimeric Lipopeptides with Enhanced Protease Resistance: A Potential Solution for Systemic Bacterial Infections” (J Med Chem, 2025):
Values after ≈ are worked out from the molar mass of the structure shown. Active and inactive are the calls of the source. No cut-off for these calls is given here.

Key:
Escherichia coli [1] = test: Antimicrobial activity against Escherichia coli ATCC 25922 assessed as increase in absorbance incubated for 20 to 22 hrs in presence of K+ physiological salt; type: functional, organism-based; details: time 20-22 hrs
RAW264.7 = test: Cytotoxicity against mouse RAW264.7 cells assessed as cell death measured after 18 to 24 hrs by MTT assay; type: functional; details: time 18-24 hrs
Escherichia coli [2] = test: Bactericidal activity against Escherichia coli ATCC 25922 assessed as reduction in bacterial viability at 4 uM measured within 30 mins; type: functional; details: 0.5 h
Escherichia coli [3] = test: Antimicrobial activity against Escherichia coli ATCC 25922 assessed as increase in absorbance incubated for 4 hrs in presence of 25% serum; type: functional, organism-based
Pseudomonas aeruginosa = test: Antimicrobial activity against Pseudomonas aeruginosa 25349 assessed as increase in absorbance incubated for 20 to 22 hrs; type: functional; details: time 20-22 hrs

With `CCCCCCCCCC(=O)NCCCC[C@H](N)C(=O)NCC(=O)NCC(=O)NCC(=O)N[C@H](CCCNC(=N)N)C(=O)N[C@@H](CCCNC(=N)N)C(=O)N[C@@H](CCCNC(=N)N)C(=O)N1CCC[C@H]1C(=O)N[C@@H](CSSC[C@H](NC(=O)[C@@H]1CCCN1C(=O)[C@H](CCCNC(=N)N)NC(=O)[C@H](CCCNC(=N)N)NC(=O)[C@@H](CCCNC(=N)N)NC(=O)CNC(=O)CNC(=O)CNC(=O)[C@@H](N)CCCCNC(=O)CCCCCCCCC)C(=O)O)C(=O)O` the Activity (Escherichia coli [1]) was “Active; C-C10)C-C Demonstrated Superior Physiological Salt Tolerance In Comparison To (N-C10)C-C”, the IC10 (RAW264.7) was 256 µM and the Activity (Escherichia coli [2]) was roughly 80%. For the same compound, the Activity (Escherichia coli [3]) was “Active” and the MIC (Pseudomonas aeruginosa) was 4 µM (≈ 9.12 µg/mL).
